Legend:
Taq polymerase = target: T1, Taq polymerase (Thermus aquaticus, UniProt P19821); assay: qPCR (GAPDH detection) with dye added directly into the qPCR reaction; type: biochemical; conditions: increasing dye in the qPCR reaction, final concentration 0.004%, 0.008%, 0.012%, 0.016%, 0.023%; Jurkat total RNA template
T1 construct: purchased New England Biolabs, Ipswich, MA
Procedure: Dyes at a concentration of 0.0003% in a qPCR mix were found not to inhibit Taq polymerase in a qPCR mix in a manner that was detrimental to the reaction. 5-log dilutions of Jurkat total RNA (1 ug, 100 ng, 10 ng, 1 ng, 100 pg) were used as the template RNA for cDNA synthesis using a commercially available thermostable reverse transcriptase (Luna RT). […] 10 minutes, and 95° C. 1 minute. 1 ul cDNA library was added to a qPCR reaction mixture containing Taq polymerase (Luna® Universal qPCR Master Mix (New England Biolabs, Ipswich, MA)) and specific primers were added to detect glyceraldehyde 3-phosphate dehydrogenase (GAPDH) in the presence of xylene cyanol at a final concentration of 0%, 0.004%, 0.008%, 0.012%, 0.016%, or 0.023%, or Xylene cyanol and tartrazine both in the concentration range described above.

[1] = tested on: reverse transcriptase (Luna RT); assay: cDNA synthesis with dye in the cDNA reaction, read out by qPCR (GAPDH); type: biochemical; conditions: increasing dye in the cDNA reaction, final concentration 0.004%, 0.008%, 0.012%, 0.016%, 0.023%; Jurkat total RNA template
Procedure: 5-log dilutions of Jurkat total RNA (1 ug, 100 ng, 10 ng, 1 ng, 100 pg) were used as the template RNA for cDNA synthesis using Luna RT in the presence of xylene cyanol at a final concentration of 0%, 0.004%, 0.008%, 0.012%, 0.016%, or 0.023%, or Xylene cyanol and tartrazine both in the concentration range described above. […] 10 minutes, and 95° C. 1 minute. 1 ul cDNA library was added to a qPCR reaction mixture containing Taq polymerase and specific primers were added to detect GAPDH.

T1 sequence (P19821 whole entry): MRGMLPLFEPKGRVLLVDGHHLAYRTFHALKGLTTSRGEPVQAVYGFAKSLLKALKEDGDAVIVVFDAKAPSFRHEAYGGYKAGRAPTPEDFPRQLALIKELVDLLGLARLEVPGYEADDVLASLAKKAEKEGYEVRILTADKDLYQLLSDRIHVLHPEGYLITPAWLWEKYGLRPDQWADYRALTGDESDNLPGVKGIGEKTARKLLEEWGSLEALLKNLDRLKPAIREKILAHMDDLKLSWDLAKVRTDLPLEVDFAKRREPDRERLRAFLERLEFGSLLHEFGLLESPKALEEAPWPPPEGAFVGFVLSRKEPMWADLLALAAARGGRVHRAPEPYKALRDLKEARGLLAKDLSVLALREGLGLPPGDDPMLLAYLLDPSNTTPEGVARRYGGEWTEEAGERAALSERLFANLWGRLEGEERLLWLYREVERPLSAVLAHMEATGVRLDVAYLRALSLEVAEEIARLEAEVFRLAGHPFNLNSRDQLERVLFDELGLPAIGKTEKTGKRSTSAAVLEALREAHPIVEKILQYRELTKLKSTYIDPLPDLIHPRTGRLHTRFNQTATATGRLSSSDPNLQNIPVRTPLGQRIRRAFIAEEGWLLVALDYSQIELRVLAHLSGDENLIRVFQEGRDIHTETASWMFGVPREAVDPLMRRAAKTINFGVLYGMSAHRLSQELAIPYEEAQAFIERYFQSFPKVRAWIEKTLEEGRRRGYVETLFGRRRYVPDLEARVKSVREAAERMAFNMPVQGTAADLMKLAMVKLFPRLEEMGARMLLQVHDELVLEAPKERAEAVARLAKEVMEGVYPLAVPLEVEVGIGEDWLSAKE

CCN=C1C=CC(=C(c2ccc(NCC)c(C)c2)c2ccc(S(=O)(=O)[O-])cc2S(=O)(=O)O)C=C1C.[Na+] [xylene cyanol]
Cq value in qPCR / inhibition of Taq polymerase (Taq polymerase): higher Cq value, indicating stronger inhibition of Taq polymerase | Cq value / inhibition of the reverse transcriptase [1]: did not change the Cq value, indicating that no detectable inhibition of the reverse transcriptase occurred

From patent US12037612B2, “High throughput reaction assembly” (priority 2018, dated 2024)
